What was measured:
P 388 D.1 Makrophagen = assay: Inhibition of cholesterol ester formation in macrophages under conditioned human plasma LDL (after Huber et al. 1990); type: cell-based; settings: for inhibition at 10 µM / IC50: Mus musculus, P388D1, 18 h; for inhibition at 10 µM: read-out: Hemmung der Cholesterinesterbildung in Macrophagen (P388D.1) 10 »M %; for IC50: read-out: Hemmung der Cholesterinesterbildung in Macrophagen (P388D.1) IC₅₀
Procedure: (§1) e) In-vitro-Wirkung der Verbindungen der Formel I und I' Hemmung der Cholesterinesterbildung in Makrophagen (nach Huber et al. (1990) Free Rad. Res. Comms. 8, 167-173): Humanplasma-LDL wurde durch sequenzielle Ultrazentrifugation bei präselektierten Dichten aus dem Plasma gesunder männlicher Nichtraucher isoliert und für 5 h bei 37° C in F-10 Medium + 1 »M Cu(II) zur Depletion seiner lipophilen Antioxidantien inkubiert. Die Bildung von Cholesterinestern in P 388 D.1 Makrophagen unter Einfluß von konditioniertem human Plasma-LDL wurde nach 18 h Inkubation der Zellen (2 x 10⁶/ml) in F-10 Medium + 1 » M Cu(II) + 50 »g/ml LDL + 5 % FCS nach Extraktion der Neutralfette dünnschichtchromatographisch gemessen. […] Stabilisierung von Plasma-LDL (nach Huber et al. (1990) Free Rad. Res. Comms. 8, 167-173): LDL (125 »g Protein/ml) wurde in 20 mM Tris-Cl pH 8, 150 mM NaCl, 10 »M CuCl₂ mit und ohne Testverbindung (gelöst in Äthanol, Äthanolendkonzentration 0,5 %) bei 42° C oxidiert. Es wurden jeweils 3 Moleküle Testsubstanz pro LDL-Partikel eingesetzt. Die Oxidation wurde kontinuierlich photometrisch bei A 234 durch die Messung der Dienbildung verfolgt. Die sogenannte "lag Phase" ist als dasjenige Zeitintervall definiert, das sich aus dem Schnittpunkt der Tangente der Kurve während der Propagationsreaktion der Lipidperoxidation und er Zeitachse ergibt. […] Hemmung der Sojabohnenlipoxygenase (15-Lipoxygenase) am LDL-Substrat (nach Cathcart et al. (1991) J. Lipid Res. 32, 63-70): LDL (100 »g Protein/ml) wurde in 20 mM Tris-Cl pH 8,3, 150 mM NaCl mit und ohne Testsubstanz (gelöst in Äthanol, Endkonzentration des Äthanol 0,5 %) mit 5000 U/2ml Sojabohnen-Lipoxygenase (Sigma, München) bei 37° C inkubiert: Die Oxidation wurde durch Messung der Diene kontinuierlich bei A 234 verfolgt. Als IC₅₀-Wert wird diejenige Konzentration der Testverbindung angegeben, die zur Halbierung der im Testansatz über die Zeit linearen Dienbildung führt.

Plasma-LDL = assay: Stabilisation of plasma LDL against Cu(II) oxidation: prolongation of the lag phase of diene formation (A 234); type: biochemical, human; settings: 3 Moleküle Testsubstanz pro LDL-Partikel; LDL 125 »g Protein/ml, 10 »M CuCl₂, pH 8, 42° C
Procedure: as §1

[1] = test system: Ratten mit diätetisch induzierter Hypercholesterinämie; assay: Dose-dependent effect on serum cholesterol in rats with diet-induced hypercholesterolaemia; type: in vivo, SD Ratten; settings: for S-Cholesterin: 4 days on 2 % Cholesterin/0,2 % Cholsäure diet, measured day 5, Mittelwerte +/- SEM, n=6; for % Kontrollen: S-Cholesterin as % of controls (dose 0 = 100)
Description: Die Verbindungen der Formel I bzw. I' sind Antioxidantien-Sulfonamidanaloga, die Hemmstoffe der Cholesterinesterbildung in der Arterienwand zur Behandlung der Arteriosklerose darstellen. a) Die Zytogenese der Atheromatose Hypercholesterinämie und Syndrome von Hypercholesterinämie/Hypertriglyceridämie Syndrome sind Risikofaktoren für die vorzeitige Arteriosklerose. In der Pathogenese der arteriosklerotischen Läsion selbst spielt die oxidative Modifikation von Lipoproteinen in der Arterienwand eine wichtige Rolle. Sie führt zur Freisetzung von chemotaktisch wirksamen Mediatoren und zur Wanderung von makrophagozytären Zellen aus dem Blut in die Arterienwand. In der Gefäßwand nehmen Makrophagen besonders intensiv oxidativ verändertes low-density lipoprotein (LDL) unreguliert auf. Die damit verbundene Erhöhung des Cholesterininfluxes und die Belastung des zellulären Stoffwechsels führt zu einem Anstieg des intrazellulären Cholesterins, einer Steigerung der Reacylierung des Cholesterins und Speicherung der Cholesterinester, die wiederum zur Ausbildung großer cytoplasmatischer Cholesterinesterdepots und zur Degeneration dieser Makrophagen ("Schaumzellen") führen. Die Schaumzellen sind das zelluläre Substrat des Atheroms und verursachen die makroskopisch sichtbaren Fettstreifen, aus denen sich dann die fibrösen Plaqueläsionen bei Fortschreiben der Erkrankung entwickeln. b) Die Grundlagen für eine antiatherosklerotische Therapie bei Fettstoffwechselstörungen Eine an die Kausalzusammenhänge orientierte antiatherosklerotische Therapie fußt idealerweise auf mindestens drei Säulen: 1. einer Senkung pathologisch erhöhter Lipidspiegel im Plasma durch Diät und/oder Pharmaka, 2. einem wirksamen Antioxidantienschutz besonders des stark atherogenen LDL zur Verminderung des oxidativen LDL-Katabolismus im Atherom und 3. einer Hemmung der Cholesterinesterbildung in den Schaumzellen der fettstreifigen Frühläsionen. Einige Senker des Serum-Cholesterins wirken, indem sie den hepatischen Pool des freien Cholesterins kontrahieren und den Katabolismus des atherogenen LDL-Cholesterins erhöhen: Ionenaustauscher interferieren z. B. mit dem enterhepatischen Cholesterinkreislauf, führen zur Depletion der Gallensäuren in den Hepatozyten und stimulieren die LDL-Cholesterinaufnahme aus dem Plasmakompartment durch eine vermehrte hepatische Aufnahme von Cholesterin über LDL und die hepatischen Apo B,E-Rezeptoren (LDL-Rezeptoren). Ähnlich wirken die Cholesterinsynthese-blocker, z. B. Lovastatin. Sie vermindern das hepatische Cholesterin und bedingen ebenfalls eine gesteigerte Aufnahme von LDL-Cholesterin aus dem Plasma über eine Vermehrung der LDL-Rezeptoren. Auch Hemmer der Cholesterinresorption bedingen eine Absenkung des hepatischen Cholesterinpools, indem sie die exogene diätetische Belastung durch Cholesterin reduzieren. Beispiele hierfür sind die sogenannten Acyl CoA: cholesterinacyltransferase (ACAT)-Hemmer, die in den Enterozyten den Cholesterinefflux via Chylomikronen durch die Hemmung der Veresterung freien Cholesterins unterbinden. In der Leber wird durch diese Hemmer der Cholesterinesterbildung zusätzlich das freie Cholesterin erhöht und die endogene hepatische Cholesterinbiosynthese durch Endprodukt-Hemmung indirekt gehemmt. In den Schaumzellen des Atheroms wird durch die Blockade der Cholesterinesterbildung erhöht freies Cholesterin in den "Reverse Cholesterol Transport pathway" der high-density lipoproteins (HDL) eingebracht, daraus entsteht ein zusätzlicher direkter antiatherogener Effekt. Antioxidantien sind Substanzen, die - allgemein gesehen - eine erhebliche Verzögerung der oxidativen Vorgänge bei einem zu schützenden Produkt bewirken. […] Es ist ein sterisch gehindertes Alkylphenol, das im LDL akkumuliert. […] Methode: 220-250 g schwere SD Ratten erhielten eine Standarddiät, die mit 2 % Cholesterin/0,2 % Cholsäure angereichert wurde, über 4 Tage. […]

| SMILES | inhibition at 10 µM (P 388 D.1 Makrophagen) [%] | Stabilisierung von Plasma LDL: Verlängerung d. "lag-Phase" % (Plasma-LDL) [%] | IC50 (P 388 D.1 Makrophagen) [nM] | also measured |
| --- | --- | --- | --- | --- |
| CCCCS(=O)(=O)NCCCc1cc(C(C)(C)C)c(O)c(C(C)(C)C)c1 [Beispiel 5.19] | 43.8 |  |  |  |
| CC(C)c1cc(C(C)C)c(S(=O)(=O)NCc2cc(C(C)(C)C)c(O)c(C(C)(C)C)c2)c(C(C)C)c1 [Beispiel 5.10, 2,4,6-tris-Isopropyl-benzolsulfo-(3,5-di-tert.butyl-4-hydroxy)benzylamid] | 60.3 | 99 | 7000 |  |
| CC(C)(C)c1cc(CCNS(=O)(=O)c2ccc(F)cc2)cc(C(C)(C)C)c1O [Beispiel 5.28, 2-[4-Fluorbenzolsulfo-(3,5-di-tert.butyl-4-hydroxy)]-phenethylamid] | 92.6 | 25 | 1200 | S-Cholesterin ([1]; 5 mg/kg/d by gavage in 2 ml Pflanzenöl): 187 +/- 23 mg %; S-Cholesterin ([1]; 15 mg/kg/d by gavage in 2 ml Pflanzenöl): 120 +/- 15 mg %; S-Cholesterin ([1]; 50 mg/kg/d by gavage in 2 ml Pflanzenöl): 114 +/- 14 mg %; S-Cholesterin ([1]; 100 mg/kg/d by gavage in 2 ml Pflanzenöl): 84 +/- 8 mg %; % Kontrollen ([1]; 5 mg/kg/d): 75%; % Kontrollen ([1]; 15 mg/kg/d): 48%; % Kontrollen ([1]; 50 mg/kg/d): 46%; % Kontrollen ([1]; 100 mg/kg/d): 33% |
| CC(C)(C)c1cc(CNS(=O)(=O)c2ccc(Cl)cc2)cc(C(C)(C)C)c1O [Beispiel 2, 4-Chlorbenzolsulfo-(3,5-di-tert.butyl-4-hydroxy)benzylamid] | 78.7 | 44 | 2500 |  |
| CC(Cc1cc(C(C)(C)C)c(O)c(C(C)(C)C)c1)NS(=O)(=O)C(C)C (stereo not drawn) [Beispiel 5.31] | 33.9 | 18 |  |  |
| CC(C)(C)c1cc(CCCNS(=O)(=O)c2ccc(Cl)cc2)cc(C(C)(C)C)c1O [Beispiel 4b] | 49.2 |  |  |  |
| CN(Cc1cc(C(C)(C)C)c(O)c(C(C)(C)C)c1)S(=O)(=O)c1ccc(Cl)cc1 [Beispiel 3, N-Methyl-4-chlorbenzolsulfo-(3,5-di-tert.butyl-4-hydroxy)benzylamid] | 54.9 | 40 |  |  |
| CC(C)c1cc(C(C)C)c(S(=O)(=O)NCCc2cc(C(C)(C)C)c(O)c(C(C)(C)C)c2)c(C(C)C)c1 [Beispiel 5.17] | 78 | 50 |  |  |
| CC(C)(Sc1cc(C(C)(C)C)c(O)c(C(C)(C)C)c1)Sc1cc(C(C)(C)C)c(O)c(C(C)(C)C)c1 [Probucol, reference compound] |  | 10 |  | Hemmung der Cholesterbildung (P 388 D.1 Makrophagen; reference substance at 10 »M, n=7, printed as positive inhibition): 25-42% |

Source: patent publication EP0558569B1, “MEDICAMENTS CONTAINING SULPHONAMIDES, NOVEL SULPHONAMIDES AND PROCES FOR PRODUCING THEM” (BOEHRINGER MANNHEIM GMBH, priority 1990, dated 1992)
